Experimental data as given in patent publication US20240376607A1, “METHOD AND COMPOSITION FOR TREATING DILUTION STEAM GENERATOR SYSTEMS” (BL Technologies, Inc., priority 2021, published 2024).
Entries after “also recorded” stand apart in the source; their conditions may differ.

Assay: Electrochemical corrosion rate measurement (Rp/Ec trend) in DSG water
Conditions: DSG Water B, 100 ppm active
Protocol: Electrochemical measurements were carried out using Gamry 600+ Potentiostat coupled with DC105™ Corrosion Techniques Software. Experiments were performed with a conventional three-electrode electrochemical cell and by employing the Rp/Ec trend technique. All tests were carried out for 24 hours at pH=8.2 to 8.8 and at T=22±0.2° C. (maintained with a recirculating water bath). A Teflon® liner was used to avoid filmer loss to the corrosion cell. The corrosion rates are measured in milli-inch per year (mpy). Pre-cleaned low carbon steel (LCS) coupons having a total surface area of 2.95 in^2 and a density of 7.87 g/cm^3 were used for testing the corrosion inhibitor treatments.

Substance: octenyl succinic acid [OSA]
- corrosion inhibition (FIG. 1) (LCS coupons): inhibit corrosion; also recorded: not as robust as the Polyamine sample
- corrosion rate (FIG. 2) (rate it increases to, 20 hours): 8 mpy
